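Each compound was tested at five concentrations against cells in 96-well plates for 48 hours. TGI: concentration producing complete growth inhibition.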
Assays:
Assay in all cases: NCI-60 cell line screen, 48 h
786-0 renal = test system: 786-0 renal
A549 NSCLC = test system: A549 NSCLC
ACHN renal = test system: ACHN renal
COLO 205 colon = test system: COLO 205 colon
DLD-1 colon = test system: DLD-1 colon
DMS 114 small cell lung = test system: DMS 114 small cell lung
DMS 273 small cell lung = test system: DMS 273 small cell lung
EKVX NSCLC = test system: EKVX NSCLC
HCC-2998 colon = test system: HCC-2998 colon
HCT-116 colon = test system: HCT-116 colon
HCT-15 colon = test system: HCT-15 colon
HOP-18 NSCLC = test system: HOP-18 NSCLC
HOP-62 NSCLC = test system: HOP-62 NSCLC
HOP-92 NSCLC = test system: HOP-92 NSCLC
HT29 colon = test system: HT29 colon
IGROV1 ovarian = test system: IGROV1 ovarian
KM12 colon = test system: KM12 colon
KM20L2 colon = test system: KM20L2 colon
LOX IMVI melanoma = test system: LOX IMVI melanoma
LXFL 529 NSCLC = test system: LXFL 529 NSCLC
M14 melanoma = test system: M14 melanoma
M19-MEL melanoma = test system: M19-MEL melanoma
MALME-3M melanoma = test system: MALME-3M melanoma
MOLT-4 leukemia = test system: MOLT-4 leukemia
NCI-H226 lung = test system: NCI-H226 lung
NCI-H23 lung = test system: NCI-H23 lung
NCI-H460 lung = test system: NCI-H460 lung
NCI-H522 lung = test system: NCI-H522 lung
OVCAR-3 ovarian = test system: OVCAR-3 ovarian
OVCAR-5 ovarian = test system: OVCAR-5 ovarian
OVCAR-8 ovarian = test system: OVCAR-8 ovarian
RPMI-8226 leukemia = test system: RPMI-8226 leukemia
RXF 393 renal = test system: RXF 393 renal
SF-268 CNS = test system: SF-268 CNS
SF-295 CNS = test system: SF-295 CNS
SF-539 CNS = test system: SF-539 CNS
SK-MEL-2 melanoma = test system: SK-MEL-2 melanoma
SK-MEL-28 melanoma = test system: SK-MEL-28 melanoma
SK-MEL-5 melanoma = test system: SK-MEL-5 melanoma
SK-OV-3 ovarian = test system: SK-OV-3 ovarian
SN12C renal = test system: SN12C renal
SNB-75 CNS = test system: SNB-75 CNS
SNB-78 CNS = test system: SNB-78 CNS
SR leukemia = test system: SR leukemia
SW-620 colon = test system: SW-620 colon
TK-10 renal = test system: TK-10 renal
U251 CNS = test system: U251 CNS
UACC-257 melanoma = test system: UACC-257 melanoma
UACC-62 melanoma = test system: UACC-62 melanoma
UO-31 renal = test system: UO-31 renal
XF 498 CNS = test system: XF 498 CNS

`CC[C@H]1CC(=O)c2c(cc3c(c2O)C(=O)c2ccccc2C3=O)[C@@]1(C#N)C(=O)OC(C)(C)C` was tested, and the TGI (786-0 renal) was 46.4 µM, the TGI (A549 NSCLC) was > 100 µM and the TGI (ACHN renal) was 31.7 µM. The TGI (COLO 205 colon) was 3.58 µM, the TGI (DLD-1 colon) was 7.08 µM and the TGI (DMS 114 small cell lung) was 7.97 µM. For the same molecule, the TGI (DMS 273 small cell lung) was 5.97 µM, the TGI (EKVX NSCLC) was 36.2 µM and the TGI (HCC-2998 colon) was 17.9 µM. The TGI (HCT-116 colon) was 8.15 µM, the TGI (HCT-15 colon) was 5.07 µM and the TGI (HOP-18 NSCLC) was 14.3 µM. For the same molecule, the TGI (HOP-62 NSCLC) was 5.82 µM, the TGI (HOP-92 NSCLC) was > 100 µM and the TGI (HT29 colon) was 10.1 µM. It also gave a TGI (IGROV1 ovarian) of 7.11 µM, a TGI (KM12 colon) of 7.77 µM and a TGI (KM20L2 colon) of 47.4 µM. The TGI (LOX IMVI melanoma) was 36.8 µM, the TGI (LXFL 529 NSCLC) was > 100 µM and the TGI (M14 melanoma) was 14.5 µM. For the same molecule, the TGI (M19-MEL melanoma) was 15.8 µM, the TGI (MALME-3M melanoma) was 17.8 µM and the TGI (MOLT-4 leukemia) was 8.62 µM. For the same molecule, the TGI (NCI-H226 lung) was 8.82 µM, the TGI (NCI-H23 lung) was 11.2 µM and the TGI (NCI-H460 lung) was 7.54 µM. For the same molecule, the TGI (NCI-H522 lung) was 6.74 µM, the TGI (OVCAR-3 ovarian) was 11 µM and the TGI (OVCAR-5 ovarian) was 46.5 µM. For the same molecule, the TGI (OVCAR-8 ovarian) was 15 µM, the TGI (RPMI-8226 leukemia) was > 100 µM and the TGI (RXF 393 renal) was 23.1 µM. The TGI (SF-268 CNS) was > 100 µM, the TGI (SF-295 CNS) was 20.9 µM and the TGI (SF-539 CNS) was 14.3 µM. The TGI (SK-MEL-2 melanoma) was 5.85 µM, the TGI (SK-MEL-28 melanoma) was 23 µM and the TGI (SK-MEL-5 melanoma) was 3.48 µM. For the same molecule, the TGI (SK-OV-3 ovarian) was > 100 µM, the TGI (SN12C renal) was 12.7 µM and the TGI (SNB-75 CNS) was 32 µM. The TGI (SNB-78 CNS) was > 100 µM, the TGI (SR leukemia) was > 100 µM and the TGI (SW-620 colon) was 13.4 µM. For the same molecule, the TGI (TK-10 renal) was 37.5 µM, the TGI (U251 CNS) was 53.3 µM and the TGI (UACC-257 melanoma) was 5.55 µM. It also gave a TGI (UACC-62 melanoma) of 50.6 µM, a TGI (UO-31 renal) of 8.6 µM and a TGI (XF 498 CNS) of 7.67 µM.

Reference: PubChem BioAssay (NCI)
